Measured values published in US20090170899A1, “Stimulators of 5-HT4 receptors and uses thereof” (priority 2004, published 2009).
Read-outs that look alike come from different tables or passages of the source.

How the values were obtained:
[1] = system: hippocampal CA3 pyramidal neurons; assay: Acute i.v. prucalopride on firing of hippocampal CA3 pyramidal neurons, with microiontophoresis; assay type: in vivo, rat; settings: GR 125487 1000 μg/kg i.v.
Experimental: FIGS. 9A to 9D. FIGS. 9A and 9C show a typical example (integrated firing rate histogram) of the response of a single hippocampal pyramidal neuron of the CA3 sub-field to an acute, intravenous administration of the selective 5-HT4 agonist prucalopride (1000 μg/kg), and its reversal by local, microiontophoretic application of the selective 5-HT1A antagonist WAY 100635 (A), or systemic injection of the selective 5-HT4 antagonist GR 125487 (1000 μg/kg, i.v.) (C). Single-cell extracellular recordings were performed in the CA3 region of chloral-hydrate anaesthetized rats by using multiple-barrel glass microelectrodes, combined with microiontophoretic pumps (with the central barrel used for recordings). Pyramidal neurons were identified according to the classical criteria (see Example 5, experimental procedures). FIGS. 9B and 9D show a summary of the effects as for FIGS. 9A and 9C, respectively. Bar histograms represent the mean (S.E.M.) percentage effect, calculated for each neuron with respect to its basal firing rate (i.e. 100% value), and the number in each column represents the number of neurons tested. *p<0.05 vs basal value, one-way ANOVA.
Microiontophoresis and extracellular recordings from hippocampal CA3 pyramidal neurons. Recording and microiontophoresis were performed with five-barreled glass micropipettes broken back to 8-12 μm under microscope control. The central barrel was filled with the same solution as in the DRN and was used for extracellular unitary recordings. Pyramidal neurons were identified by their large amplitude (0.5-1.2 mV) and long-duration (0.8-1.2 ms) simple spikes alternating with complex spike discharges (Kandel and Spencer, 1961). The side barrels contained the following solutions: quisqualate (1.5 mM in 200 mM NaCl, pH 8), WAY 100635 (15 mM in 200 mM NaCl, pH 4), and 2 M NaCl used for automatic current balancing. Rats were mounted in the stereotaxic apparatus and the micropipettes were lowered at 4.2 mm lateral and 4.2 anterior to lambda into the CA3 sub-region of the dorsal hippocampus.
Involvement of endogenous 5-HT and hippocampal 5-HT1A receptors in the effect of 5-HT4 agonists. […] This interpretation is consistent with our own previous findings, showing that both acute and chronic (3-day) administration of the same compounds augment DRN 5-HT neuronal firing activity (Lucas and Debonnel, 2002; Lucas et al., 2005). It is also in keeping with observations from a single in vivo microdialysis study, where acute systemic injection of preferential 5-HT4 agonists increased hippocampal 5-HT efflux (Ge and Barnes, 1996). To further address this possibility, two additional series of experiments were conducted. First, the role of endogenous 5-HT was assessed by using the same protocol as above, in rats co-treated with RS 67333 (or its vehicle) and the 5-HT depleter para-chlorophenylalanine (pCPA). […] The ejection currents of quisqualate needed to activate CA3 pyramidal neurons were, in this case, similar to those used in controls (0 to −2 nA, FIG. 8C). We then tested the ability of a local application of WAY 100635, directly into the CA3 subfield through the use of microiontophoresis, to modify the effect of a 5-HT4 agonist. We chose not to use the previous protocol (i.e. chronic treatments), because, as shown above, the required quisqualate currents differ between the experimental groups. Even though all currents were balanced, it was not possible to exclude the possibility that the amount of quisqualate present in the vicinity of the electrode may have an influence on the quantity of WAY 100635 actually ejected, and/or on its ability to act on pyramidal neurons. For this reason, prucalopride was used acutely in naïve rats, at a dose known to induce a significant augmentation of DRN 5-HT neuronal activity (1000 μg/kg, i.v.) (Lucas and Debonnel, 2002). […]

DRN 5-HT neurons [2] = assay: Extracellular single-unit recordings of DRN 5-HT neuron mean firing rate in anaesthetized rats; assay type: in vivo, rat
Experimental: In a second part of the study, the selective 5-HT4 agonists prucalopride (Briejer et al., 2001) and RS 67333 (Eglen et al., 1995) were administered either subacutely (i.e. 30 min before the beginning of recordings), or continuously through the use of osmotic minipumps during 3 or 21 days. The selective 5-HT4 antagonist GR 125487 (Gale et al., 1994) was also used to confirm the involvement of 5-HT4 receptors in the effects of the agonists. Successive single-cell extracellular recording tracks were then performed along the DRN of anaesthetized rats. This set of experiments was performed in order to globally assess the effect of such treatments on the mean activity of 5-HT neurons.
Pharmacological treatments. All the 3 different 5-HT4 pharmacological agents were diluted in a solution of physiological saline (NaCl 0.9%), and administered in a dose range known to induce significant binding on 5-HT4 sites (Lucas and Debonnel, 2002; Lamirault and Simon, 2001; Porras et al., 2002). In subacute experiments, prucalopride, RS 67333 or their vehicle were administered i.p. 30 min. before the beginning of recordings. For chronic treatments (both 3 and 21 days), prucalopride, RS 67333 or their vehicle were delivered through osmotic minipumps (Alza, Palo Alto, Calif.) inserted subcutaneously. Electrophysiological recordings were performed with the minipumps in place. […] In a separate set of experiments, the 5-HT4 antagonist GR 125487 was tested in animals treated for 3 days with either prucalopride or RS 67333. Two DRN tracks were first performed, then GR 125487 was administered i.v. (via a lateral vein of the tail) and 2-3 additional tracks were performed, starting 30 min. after the injection. All drug dosages refer to the free base.
Extracellular recordings of DRN 5-HT neurons. Recordings were performed using single-barreled glass micropipettes. Electrodes were filled with a 2 M NaCl solution saturated with Fast Green FCF, resulting in an impedance of 2-5 MΩ. Rats were anaesthetized with chloral hydrate (400 mg/kg, i.p.) and placed in a stereotaxic frame. A burr hole was drilled on the midline 1 mm anterior to lambda. DRN 5-HT neurons were encountered over a distance of 1 mm starting immediately below the ventral border of the Sylvius aqueduct. These neurons were identified using the classical criteria: a slow (0.5-2.5 Hz) and regular firing rate and long-duration (0.8-1.2 ms) positive action potentials (Aghajanian, 1978). In each animal, four to five successive descents were performed along the DRN, and a total of 10-16 cells was recorded. At the end of the experiments, a 25 μA cathodal current was passed through the recording electrode to leave a Fast Green deposit at the recording site. Animals were sacrificed with an i.v. overdose of chloral hydrate, and the brain removed. The site of recording was verified under microscope immediately after experiments.
Statistical analysis. In each experimental group, data were expressed as means±S.E.M. of all the recorded neurons, unless otherwise specified. The effects of the different 5-HT4 agonist administrations on the firing activity of DRN 5-HT neurons was assessed using one-way ANOVAs, followed by the post-hoc Dunnett's test when significant. The influence of GR 125487 on the effect of a 3-day treatment with prucalopride or RS 67333 was assessed using two-way ANOVAs followed by the post-hoc Tukey's test. In all cases, p<0.05 was chosen as the criterion of significance.

[3] = system: BrdU-positive cells in the sub-granular zone (SGZ) of the hippocampus; settings: cited from earlier work
DRN 5-HT neurons [4] = assay: Reversal by acute prucalopride of the inhibition of DRN 5-HT neuron firing rate induced by i.v. SSRIs; assay type: in vivo, rat; settings: acute intravenous administration
Source text: FIGS. 6A and 6B illustrate the effect of prucalopride on the inhibition of 5-HT neuronal firing rate induced by SSRIs fluxoamine and citalopram.
In FIGS. 6A and 6B, the firing activity of the 5-HT neuron is suppressed following the acute intravenous administration of the antidepressant SSRIs fluvoxamine and citalopram. This suppression of the firing activity is due to the activation of the 5-HT1A autoreceptors, subsequent to the increase of the concentration of endogenous 5-HT, following the blockade of the 5-HT reuptake sites.

DRN 5-HT neurons [5] = settings: cited from earlier work

Compound: COc1[nH]c2ccc(F)cc2c1C(=O)OCC1CCN(CCNS(C)(=O)=O)CC1 [GR 125487]
- effect of GR 125487 on the action of prucalopride [1]: abolished
- effect of GR 125487 on the facilitory effect of 3-day prucalopride or RS 67333 on DRN 5-HT firing rate (DRN 5-HT neurons [2]; GR 125487 acute i.v., tracks from 30 min after injection): totally suppressed
- effect of GR 125487 on its own on 5-HT neuronal activity (DRN 5-HT neurons [2]; acute i.v., control rats): small, non statistically significant

Compound: CNCCC(Oc1ccc(C(F)(F)F)cc1)c1ccccc1 (stereo not drawn) [fluoxetine]
- increase of hippocampal neurogenesis ([3]; 14-day treatment, Malberg et al., 2000): +35%
- quickest effect reported on hippocampal neurogenesis ([3]; Santarelli et al., 2003): 11 days
- activity on hippocampal neurogenesis ([3]; at 5 days, Santarelli et al., 2003): inactive

Compound: COCCCC/C(=N\OCCN)c1ccc(C(F)(F)F)cc1 [fluvoxamine]
- firing activity of the 5-HT neuron after SSRI (DRN 5-HT neurons [4]): suppressed

Compound: CN1CCN2c3ncccc3Cc3ccccc3C2C1 (stereo not drawn) [mirtazapine]
- effect on 5-HT neuron firing rate (DRN 5-HT neurons [5]; acute conditions, Haddjeri et al., 1996): increases
- effect on 5-HT neuron firing rate (DRN 5-HT neurons [5]; after a 2-day treatment, Besson et al., 2000): no longer present
